Measurements from patent US20040219217A1, “Conjugates of polysaccharide polymers of natural origin” (priority 2001, published 2004).

Experiments:
[1] = tested on: granuloma from cotton pellets; assay: induction of granuloma from cotton pellets; format: in vivo; settings: rats, subcutaneous cotton pellet 1 g, after fifteen days, vs simple cotton
Text: 3. Influence of fibre derivatized with anti-inflammatories or with immunostimulating agents on the phlogogenic process.
The experiments have been carried out on rats through the test of induction of granuloma from “cotton pellets”.
According to this test cotton pellets having a pre-established weight (1 g) and shape are introduced into the subcutaneous region of the subaxillary area of the animals using a cannula which can pierce the skin and the sub-skin (the scar is closed again with a suture stitch).
Around the cotton pellet a “granuloma” collagen deposit is formed, whose entity is proportional to the phlogogenic process.
After fifteen days from the operation the granuloma is taken from the animal under anesthesia and it is weighed to determine its entity.
In the present case the cotton used as a base for the implantation of the granuloma consists of: […]

UV-induced edema in skin = assay: UV-induced edema (erythema) in rats' skin; format: in vivo; settings: daily application, vs animals with no application
Experimental: 6. Influence of the application of derivatized cotton fibres on UV-induced edema in rats' skin.
Adult rats are depilated on their backs and are then exposed to UV radiations until a consistent skin edema forms.
The exposition is carried out only on pre-established circular areas using suitable pierced masks.
Then normal cotton gauzes (controls) or gauzes obtained from fibre derivatized with a medicament are applied with a good adherence onto the inflamed areas. Simultaneously another group of animals is tested to check the effectiveness of the application of the same medicaments in form of 5% gel.
The regression of the erythema defined as the reduction of the entity and surface of the reddening area is controlled daily with respect to control animals with no application, and immediately afterwards the medicament is applied again in the various forms.
On the 5th day the average extension of the erythema surface is measured and its reduction in percentage with respect to the animals with no application is calculated.

Escherichia coli = assay: plate culture growth under derivatized cotton gauze; format: cell-based; settings: E. coli, 24 hours at 37° C., vs normal growth conditions
Text: (§1) 2. Evaluation of the influence of cotton derivatized with germicides, with anti-bacterial or anti-fungi agents in the development and amount of microorganic flora.
(§2) The influence of suitably derivatized cotton fibre on the development of microorganic flora has been determined “in vitro” on plate growing cultures of various micro-organisms: Candida albicans, Escherichia coli, Staphylococcus aureus isolated and characterized by contaminated organic material.
(§3) To this purpose growth selective mediums are prepared (sabouraud agar for fungi and nutrient agar for bacteria) with which Petri dishes are prepared.
(§4) On the medium surface the microorganism culture is applied by deposition of one ml of a suspension of said microorganism containing 10^9 microorganisms, lightly agitating so as to cover the whole plate surface.
(§5) A cotton gauze obtained from fibre derivatized with the various substances taken into consideration is then applied onto the surface; the whole is then placed in a thermostat at 37° C.
(§6) After 24 hours the gauze is removed and the developed colonies are compared with plates in normal growth conditions.
(§7) The reduction in percentage of the growth in the plates characterized by conjugated gauze is evaluated with respect to normal growth conditions.

Candida albicans = assay: as above; format: cell-based; settings: C. albicans, 24 hours at 37° C., vs normal growth conditions
Text: as §1, §2, §3, §4, §5, §6, §7

Staphylococcus aureus = assay: as above; format: cell-based; settings: S. aureus, 24 hours at 37° C., vs normal growth conditions
Text: as §1, §2, §3, §4, §5, §6, §7

[2] = in vitro cleavage of the conjugation in artificial sweat; format: physicochemical; settings: 18 h hydrolysis, skin's usual pH, 37° C.
Experimental: In the following table 2, different chemical conjugations contemplated by the present invention have been tested for in vitro cleavage under conditions simulating the topical application of the polysaccharide polymers of the present invention to the skin. In particular, for evaluating the biodegradability of a given chemical conjugation established between cotton and an active substance, the conjugate is subjected to hydrolysis at the skin's usual pH at 37° C. under mild agitation in the presence of an enzymatic mixture known as “artificial sweat”. After the pre-established time period of contact with the hydrolysis medium, the same was analyzed for the active substances or their fragments contained therein. The examples as listed below were chosen on the following grounds: […]

mite population = settings: dust collected after two days, vs underivatized fabrics
Experimental: 8. Performance of anti-mite fabrics.
Cotton fibres conjugated to acaricides (as set out in the chemical experimental part above) were used for obtaining fabrics (woven and non-woven) used in turn for the manufacture of household articles (curtains, carpet floor and the like) placed in living environments. In particular, living environments (flats, apartments and houses) at the countryside at locations particularly exposed to dust and ventilation were chosen. Moreover, the tests were conducted during spring, which is the period with the highest mite contamination risk.
After two days of total exposure of the living environments to the open air, at the point in time zero, the dust was removed through vacuum cleaning and the presence and the status of the mite population contained therein was subjected to microscopic examination. Thereafter, some of the living environments, after appropriate randomization, were equipped with the fabrics according to the invention obtained from fibres conjugated to acaricides, thus making up a first test group. On the other hand, the remaining living environments were equipped with fabrics from customary cotton thereby making up a second test group as a control for the development of the mite population.
After another two days, the dust from both of the test groups was collected and the overall number of mites as well as the number of living mites was established.

[3] = tested on: subcutaneous lipid deposit; assay: experimental subcutaneous lipid deposit in rats; format: in vivo; settings: abdominal tissue, gauze applied from the eighth day, after thirty days
Experimental: 7. Influence of the application of derivatized cotton fibres on experimental subcutaneous lipid deposit in rats.
The experiments were carried out on adult rats by injecting into their subcutaneous abdominal areas a lipid fraction rich in cholesterol (Sigma L 4646), and daily repeating the administrations until a stabilized subcutaneous lipid deposit is obtained; the fat mixture is injected in six adjacent sites in a volume of 0.2 ml/location for 7 days.
Then, from the eighth day on, cotton gauzes obtained from fibre derivatized with lipase (example II.F. above) are applied onto said areas in a perfectly adhering way.
After thirty days the animals are killed and the treated abdomen areas is taken. Aliquots of said area of about 2 g, precisely weighed, are homogenized in a Waring blender and the lipid content is extracted by adding aliquots of ethyl ether under strong stirring: three extractions with 20 ml of solvent each.
The ether fractions are mixed and concentrated in a rotary evaporator until dryness.
The concentration/g of extracted lipid tissue is determined by weighing said extracts.

[4] = tested on: experimental sclerosis in femoral veins; assay: experimental sclerosis in rabbits' femoral veins; format: in vivo; settings: rabbit femoral vein, carbon tetrachloride as sclerotizing agent, gauze bandage, after ten days
Experimental: 4. Influence of the application of derivatized cotton fibres on the entity of experimental sclerosis in rabbits' femoral veins.
After a suitable depilation a rabbit's femoral vein is closed for a length of about 5 cm by means of suture stitches downstream and upstream.
Within the separated area 0.05 ml of carbon tetrachloride in 10% solution (Fluka 87031) is added as sclerotizing agent.
The area is suitably bandaged with normal cotton gauzes (control) or derivatized gauzes so that they perfectly adhere to the treated area.
After ten days the vein fragments undergoing stasis are taken and controlled with a microscope to check the parietal state and the consistency of the sclerotizing deposits.
It is thus possible to observe how the application in the area receiving layers of derivatized cotton gauzes with: […]

Substance: cotton-S-S-cys-polylys-naproxen
- % reduction in the weight of the granuloma [1]: 64.0%

Substance: cotton-S-S-cys-polylys-(PABA-hydrocortisone)n
- % reduction of the erythema extension with respect to controls on the 5th day after the induction (UV-induced edema in skin): 95%
- % reduction in the weight of the granuloma [1]: 90.0%

Substance: cotton-CH2—NH-lys-NH—CH2-Ph-OH
- % reduction in the development of colonies (Escherichia coli): 85%
- % reduction in the development of colonies (Candida albicans): 75%
- % reduction in the development of colonies (Staphylococcus aureus): 85%
- % of released active principle [2]: 1.2%

Substance: cotton-CH═N-gramicidin
- % reduction in the development of colonies (Escherichia coli): 80%
- % reduction in the development of colonies (Candida albicans): 65%
- % reduction in the development of colonies (Staphylococcus aureus): 90%

Substance: cotton-S-S-cys-PABA-hydrocortisone
- % reduction of the erythema extension with respect to controls on the 5th day after the induction (UV-induced edema in skin): 60.0%
- % reduction in the weight of the granuloma [1]: 55.0%

Substance: cotton-CH2—NH-lys-NH—CO-PABA-benzyl benzoate [III.B.2.1.2.]
- Decrease (%) of total living mite population (mite population): 59%

Substance: cotton-CH═N-polylys-(NH—CO-PABA-benzylbenzoate)n [III.B.2.2.1.]
- Decrease (%) of total living mite population (mite population): 94%

Substance: cotton-CH═N-bacitracin
- % reduction in the development of colonies (Escherichia coli): 75%
- % reduction in the development of colonies (Candida albicans): 65%
- % reduction in the development of colonies (Staphylococcus aureus): 95%

Substance: cotton-S—S—CH2—CH(NH—CO-lipase)-CO—NH-lipase
- lower lipid content than the controls [3]: 45%

Substance: cotton-S—S-IgG [Cotton/IgG]
- % of released active principle [2]: 40.8%

Substance: cotton-CH2—NH-polylys-(NH—CO-PABA-benzylbenzoate)n [III.B.2.2.2.]
- Decrease (%) of total living mite population (mite population): 100%

Substance: cotton-CH═N-lys-NH—CO-PABA-benzylbenzoate [III.B.2.1.1.]
- Decrease (%) of total living mite population (mite population): 58%

Substance: cotton-CH═N-procaine [Cotton/procaine]
- % of released active principle [2]: 76.3%

Substance: cotton-S—S—CH2—CH(COOH)—NH—CO-naproxen
- % reduction in the weight of the granuloma [1]: 30.0%

Substance: cotton-S—S—CH2—CH(COOH)—N═CH-heparin
- % of released active principle [2]: 50.4%
- tissue sclerotic state [4]: reduce the tissue sclerotic state to a consistent extent
